What follows are compounds tested on fungal Cer1 (Cn Cer1) (assay: High throughput ceramide synthase assay (96-well, NBD-sphingosine, SPE)). Settings: 1 micromolar; wells contained 10 compounds each; 1 hour at 37° C.
Type: biochemical, Cryptococcus neoformans
Protocol: The compounds were first diluted to 1 mM each (1:10 dilution with 10% DMSO) with a physiological buffer (YNB medium buffered with HEPES at pH 7.4 containing 2% glucose) and subsequently diluted to 300 μM (1:3.3 dilution) with the same medium (3% DMSO). A 100-μl aliquot of this solution was placed into each well of a 96-well master plate and stored at −20° C. until use. Each well in the screening master plates contained 10 compounds at 1 μM each. The ceramide synthase reaction was performed in a 96-well plate format using fungal Cer1 (Cn Cer1) or human ceramide synthase (Hu-Cer1, -Cer2, -Cer3, -Cer4, -Cer5, or -Cer6) enzyme, containing NBD-Sphingosine (NBD-Sph) (Avanti Polar Lipids) and 18:0 Coenzyme A (Stearoyl Coenzyme A, Avanti Polar Lipids) as substrates using the following concentrations: 10 μM NBD-Sph and 50 μM fatty acid CoA. The reaction mixture was prepared in HEPES buffer (20 mM HEPES, pH 7.2, 25 mM KCl, 250 mM sucrose, and 2 mM MgCl2). Library compounds were added and plate incubated for 1 hour at 37 C. The lipid product (NBD-ceramide) was separated using solid phase extraction (SPE) column chromatography using Strata® C18-E, 96 well plates (Phenomenex). Reaction product was measured using a plate reader.
The Cn Cer1 enzyme is expressed using the pYES-GAL1 galactose inducible system in Saccharomyces cerevisiae whereas the mammalian ceramide synthases (Cer1-6) are induced with tetracycline using the Tet-On System in HCT-116 cells under the control of Geneticin and Blasticidin. Cn Cer1 or Hu Cer1-6 enzymes were extracted using the tag system and enriched in microsomal preparation. Before using the enzymes in the plate screening, each preparation was tested for ceramide activity using the TLC assay illustrated in FIG. 11, to make sure the ceramide synthase activity works as expected. Appropriate negative controls (e.g. Cn Cer1 on glucose or Hu Cer1 in absence of tetracycline) were included in each plate during the screening.
The ceramide synthase assay was performed using NBD-Sphingosine (NBD-Sph) (Avanti polar lipids) and 18:0 Coenzyme A (Stearoyl Coenzyme A, Avanti polar lipids) as substrates using the following concentrations: 10 μM NBD-Sph and 50 μM fatty acid CoA. Enzyme(s)—ceramide synthases—were prepared using microsome purification of the yeasts or mammalian expression system. For yeast, the S. cerevisiae strain BY4741 expressing C. neoformans ceramide synthase 1 using the pYES GAL1 expression system was grown in 200 ml of liquid YNB 2% galactose medium for 16 hours. The same strain grown in the same medium but containing 2% glucose was used as a negative control because the Cn Cer1 gene is under the control of the galactose promoter (GAL1). Cells were then harvested by centrifugation, resuspended in 2 ml of Lysis Buffer (20 mM HEPES/KOH, pH 7.4, 25 mM KCl, 2 mM MgCl2, 250 mM sorbitol) and 50 μl of proteinase inhibitor mixture (Sigma-Aldrich)/g of cells, and broken by bead-bashing at 4° C. for 1.5 h. Cell debris were removed by centrifuging at 1000 g at 4° C. for 10 min. The supernatant was loaded on a 60% (w/w) sucrose cushion and centrifuged at 100,000 g for 1 h. The microsomes were collected from the interphase, snap frozen in liquid nitrogen, and stored at −80° C. until use.
The high throughput assays were adapted from the Avanti Ceramide synthase assay kit (https://avantilipids.com/product/640011/). The reactions were first downsized to 20 μl in a 96-well plate format using human ceramide synthases (Cer1, […], Cer3, Cer4, Cer5, or Cer6) along with Cn Cer1. Lipid product (NBD-ceramide) was separated using solid phase extraction (SPE) column chromatography using Strata® C18-E, 96 well plates (Phenomenex). The reaction product was measured using a plate reader, as in FIG. 12. The Z′ score of the assay is 0.80194, which is considered excellent (FIG. 12).
An initial screening yielded compounds 1-10 (Table 3). […]

Compound	% reduction in activity (inhibition of Cn Cer1 synthse activity)
CC(C)Nc1cc(-c2ccc3c(c2)OCO3)nc(N)n1 [Compound 1]	94.43%
OCc1cc(-c2ccc3ccccc3n2)ccc1F [Compound 2]	94.43%
C=CCc1cc(-c2[nH]cnc2-c2ccccc2)cc(OC)c1O [Compound 3]	94.43%
Cc1ccsc1C(=O)N1CCN2C(=O)CNC(=O)C2C1 (stereo not drawn) [Compound 4]	94.43%
Cn1ccnc1CN(Cc1cc2ccccc2o1)C1CC1 [Compound 5]	94.43%
CCN(C/C=C/c1ccccc1)C(=O)c1cc2cccnc2nc1C [Compound 6]	94.43%
CCN(CC1CCCCO1)C(=O)c1cccc(-n2cnnc2)c1 (stereo not drawn) [Compound 7]	94.43%
CC(C)CN1CC(C(=O)NCc2nncn2C2CCCCC2)CC1=O (stereo not drawn) [Compound 8]	94.43%
CC(Cn1ccc2ccccc21)NC(=O)c1ccc(-n2cnnc2)cc1 (stereo not drawn) [Compound 9]	94.43%
CCN(C/C=C/c1ccccc1)C(=O)c1ccc(-n2cnnc2)cc1 [Compound 10]	94.43%
Cc1ccc(F)cc1NC(=O)N1CCOC2(CNCCOC2)C1 (stereo not drawn) [Compound 11]	87.67%
c1cncc(COC2CCN(Cc3ccc(-c4cc[nH]n4)s3)CC2)c1 [Compound 12]	87.67%
CN1CC2(CCCN(C(=O)c3ccc4c(c3)OCCN4C)CC2)OC1=O (stereo not drawn) [Compound 13]	87.67%
CN(Cc1cc2cc(F)ccc2[nH]1)C(=O)c1ccccc1C1CCNC1 (stereo not drawn) [Compound 14]	87.67%
CCn1c(C2CCN(C(=O)C(N)CC3CCCC3)CC2)nn(C)c1=O (stereo not drawn) [Compound 15]	87.67%
Cc1nc[nH]c1-c1nccn1C(C)c1cccs1 (stereo not drawn) [Compound 16]	87.67%
Clc1cccc2ccc(CN3CCn4cncc4C3)nc12 [Compound 17]	87.67%
COc1cccc2c1OCCCN(C(=O)c1cn3c(n1)CNCC3)C2 [Compound 18]	87.67%
FC(F)(F)C1CCN(Cc2cc3n(n2)CCNC3)CC1 [Compound 19]	87.67%
Fc1cccc(CN2CCN(Cc3cnc(NCC4CCCO4)nc3)CC2)c1 (stereo not drawn) [Compound 20]	87.67%
CCCCN(Cc1ccco1)C(=O)c1cc(C)[nH]c(=O)c1 [Compound 21]	86.1%
O=C(NCCC1=CCCN(CCCF)C1)c1cccs1 [Compound 22]	86.1%
CCN(Cc1ccc(-n2cccn2)cc1)CC1CCOCC1 [Compound 23]	86.1%
O=C(NCC1(Cn2cccn2)CC1)c1ccccc1N1CCOCC1 [Compound 24]	86.1%
C/C(=C\c1ccccc1)CN1CCC(CN)C1 (stereo not drawn) [Compound 25]	86.1%

Compound	% reduction in activity (inhibition of Cn Cer1 synthse activity)
CCC[C@@H]1C[C@H](NC(C)=O)C[C@H](C2CCCCC2)O1 [Compound 26]	86.1%
CCc1ncc(C(=O)N2CCN(CC(C)C)C(=O)C2C)cn1 (stereo not drawn) [Compound 27]	86.1%
COc1cc(F)c(C2CC(=O)Nc3cc(N4CCNC4=O)ccc32)cc1OC (stereo not drawn) [Compound 28]	86.1%
Cc1cc2c(cc1O)NC(=O)CC2c1c[nH]nc1-c1ccc(F)cc1 (stereo not drawn) [Compound 29]	86.1%
Cc1nc(CC(=O)NCCSc2nnc(C)s2)cs1 [Compound 30]	86.1%
O=C1NCC2(CCCN(c3ncnc4[nH]ccc34)CC2)O1 (stereo not drawn) [Compound 31]	85.73%
O=C1NCC2(CCCN(c3nnnn3-c3ccccc3)CC2)O1 (stereo not drawn) [Compound 32]	85.73%
Cc1nc(C(C)C)ncc1C(=O)N(C)Cc1snnc1C [Compound 33]	85.73%
CCn1c(C2CCN(C(=O)C(C)n3cncn3)CC2)nn(C)c1=O (stereo not drawn) [Compound 34]	85.73%
CCSc1nc(CC(=O)N2[C@@H]3CC[C@H]2C[C@@H](O)C3)cs1 [Compound 35]	85.73%
Cc1noc(C)c1-n1c(CCCN2CCOCC2)n[nH]c1=O [Compound 36]	85.73%
CC(C)Cc1n[nH]c(Cn2nc(Cc3ccccc3)c3ccccc3c2=O)n1 [Compound 37]	85.73%
Cc1cc(C)n2nc(C(=O)N3CCC4(CN(C)C(=O)O4)C3)cc2n1 (stereo not drawn) [Compound 38]	85.73%
CN(C)CC1COCCN(Cc2c(-c3ccccc3)nc3ncccn23)C1 (stereo not drawn) [Compound 39]	85.73%
NC(=O)c1cccc(CC2CCN(C(=O)CCn3ccccc3=O)C2)c1 (stereo not drawn) [Compound 40]	85.73%
O=C(Nc1cccnc1)c1ccc(-c2cccc3cccnc23)o1 [Compound 41]	84.91%
CN1CCC2(CC1)CCN(C(=O)c1cccc(Oc3ncccn3)c1)C2 [Compound 42]	84.91%
CC(=O)N(C)CC1=CCCN(Cc2cc(F)c(F)cc2F)C1 [Compound 43]	84.91%
O=C1NCC(=O)N2CCN(C(=O)c3cccc4c3NCCC4)CC12 (stereo not drawn) [Compound 44]	84.91%
CC(=O)N(CCc1ccc(F)cc1)CC1=CCCN(CCO)C1 [Compound 45]	84.91%
CNc1ncc(CN(C)C(=O)c2cnn[nH]2)cn1 [Compound 46]	84.91%
Cc1cc2[nH]c(CN3CCCC3c3nc4cc(F)ccc4[nH]3)cc(=O)n2n1 (stereo not drawn) [Compound 47]	84.91%
O=C(c1cnn[nH]1)N1CCC(Oc2ncccn2)CC1 [Compound 48]	84.91%
Cc1ccccc1-n1cc(CN(C)C(=O)c2ccccc2C2CCNC2)cn1 (stereo not drawn) [Compound 49]	84.91%
CCc1nc(C)sc1CNc1nc(-c2cccnc2)nc2c1cnn2C [Compound 50]	84.91%

These compounds were tested on Pma1 (assay: Glucose dependent medium acidification (plasma membrane H+-ATPase activity)). Settings: Δgcs1 strain upon treatment.
Type: cell-based, Cryptococcus neoformans
Protocol: Glucose-dependent medium acidification was monitored by a modification of a procedure described previously (Perlin, Brown et al. 1988, Soteropoulos, Vaz et al. 2000). Cultures of Cn strain WT, Δcer1, Δcer1+CER1, Δgcs1 were grown to mid-log Phase in YPD. The next day, these cells were transferred to DMEM at pH 4.0 and allowed to grow under shaking conditions for 24 hours. These cells were then harvested and washed using 100 mM KCl, pH 5.0. These pellets were then resuspended in 10 ml KCl, pH 5.0 and incubated under shaking condition at 30° C. These samples were then stored at 4° C. overnight prior to use. For the assay, cells were concentrated to a final A590 of approximately 2.0. 20 μl cells along with 155 μl of bromophenolblue (50 μg/ml) in 100 mM KCl, pH 5.0. 20 μl 20% (w/v) glucose was added to initiate the reaction. Medium acidification was monitored at 590 nm over a period of 5 hours (data point every 3 mins) in a microplate reader (SpectraMax M5).

Compound	Pma1 activity
Aureobaisdin A [AbA]	reduced

Reference: US20200171132A1, “METHODS OF INHIBITING FUNGAL CERAMIDE SYNTHASE FOR TREATMENT OF CRYPTOCOCCUS NEOFORMANS INFECTION” (The Research Foundation for the State University of New York, priority 2017, published 2020)
